Assay results reported in PubChem BioAssay AID1963983 (Molecular Pharmacology Branch, DTP, NCI, 2024).
pIC50: −log10 of the molar value.

System: 186277-243-T-J2-PDC multi-cell spheroid viability
Experiment: Anticancer human tumor 186277-243-T-J2-PDC patient-derived colon adenocarcinoma cell line growth inhibition [PI3K]
Settings: for pIC50: curve of first compound; for viability, T/C: stronger effect = lower value
How it was run: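 Three cell types, namely tumor cells, endothelial cells and mesenchymal stem cells, formed each spheroid. Combinations with four PI3K inhibitors were screened at clinically achievable concentrations decreasing by half-log, and spheroid viability was recorded.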

[1] = second compound 0.0316 µM, first compound 0.0316 µM
[2] = second compound 0.0316 µM, first compound 0.1 µM
[3] = second compound 0.0316 µM, first compound 0.316 µM
[4] = second compound 0.0316 µM, first compound 1 µM
[5] = second compound 0.0316 µM, first compound 3.16 µM
[6] = second compound 0.0316 µM, first compound 10 µM
[7] = second compound 0.1 µM, first compound 0.0316 µM
[8] = second compound 0.1 µM, first compound 0.1 µM
[9] = second compound 0.1 µM, first compound 0.316 µM
[10] = second compound 0.1 µM, first compound 1 µM
[11] = second compound 0.1 µM, first compound 3.16 µM
[12] = second compound 0.1 µM, first compound 10 µM
[13] = second compound 0.316 µM, first compound 0.0316 µM
[14] = second compound 0.316 µM, first compound 0.1 µM
[15] = second compound 0.316 µM, first compound 0.316 µM
[16] = second compound 0.316 µM, first compound 1 µM
[17] = second compound 0.316 µM, first compound 3.16 µM
[18] = second compound 0.316 µM, first compound 10 µM
[19] = second compound 1 µM, first compound 0.0316 µM
[20] = second compound 1 µM, first compound 0.1 µM
[21] = second compound 1 µM, first compound 0.316 µM
[22] = second compound 1 µM, first compound 1 µM
[23] = second compound 1 µM, first compound 3.16 µM
[24] = second compound 1 µM, first compound 10 µM
[25] = second compound 3.16 µM, first compound 0.0316 µM
[26] = second compound 3.16 µM, first compound 0.1 µM
[27] = second compound 3.16 µM, first compound 0.316 µM
[28] = second compound 3.16 µM, first compound 1 µM
[29] = second compound 3.16 µM, first compound 3.16 µM
[30] = second compound 3.16 µM, first compound 10 µM
[31] = second compound 10 µM, first compound 0.0316 µM
[32] = second compound 10 µM, first compound 0.1 µM
[33] = second compound 10 µM, first compound 0.316 µM
[34] = second compound 10 µM, first compound 1 µM
[35] = second compound 10 µM, first compound 3.16 µM
[36] = second compound 10 µM, first compound 10 µM
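Also: spheroids exposed to compounds for seven days before viability reading.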
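For viability, T/C in this document: 100% = DMSO vehicle control viability.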

C#Cc1c(F)ccc2cc(O)cc(-c3ncc4c(N5CC6CCC(C5)N6)nc(OCC56CCCN5CC(F)C6)nc4c3F)c12 (stereo not given) + CC(Nc1ncnc2nc[nH]c12)c1cc2cccc(Cl)c2c(=O)n1-c1ccccc1
pIC50 (second compound 0.0316 µM): 7.03 | pIC50 (second compound 0.1 µM): 7.03 | pIC50 (second compound 0.316 µM): 7.06 | pIC50 (second compound 1 µM): 7.10 | pIC50 (second compound 3.16 µM): 7.28 | pIC50 (second compound 10 µM): > 7.50 | viability, T/C [1]: 98.9% | viability, T/C [2]: 47.3% | viability, T/C [3]: 19.4% | viability, T/C [4]: 11.3% | viability, T/C [5]: 10.3% | viability, T/C [6]: 9.72% | viability, T/C [7]: 106% | viability, T/C [8]: 46.3% | viability, T/C [9]: 21.2% | viability, T/C [10]: 13.3% | viability, T/C [11]: 16.1% | viability, T/C [12]: 8% | viability, T/C [13]: 102% | viability, T/C [14]: 41% | viability, T/C [15]: 25.5% | viability, T/C [16]: 20.3% | viability, T/C [17]: 14.3% | viability, T/C [18]: 11.2% | viability, T/C [19]: 93.6% | viability, T/C [20]: 38% | viability, T/C [21]: 18% | viability, T/C [22]: 19.6% | viability, T/C [23]: 11% | viability, T/C [24]: 6.62% | viability, T/C [25]: 68.6% | viability, T/C [26]: 26.3% | viability, T/C [27]: 14.9% | viability, T/C [28]: 12.1% | viability, T/C [29]: 7.19% | viability, T/C [30]: 4.96% | viability, T/C [31]: 31.9% | viability, T/C [32]: 12.6% | viability, T/C [33]: 8.73% | viability, T/C [34]: 6.7% | viability, T/C [35]: 4.26% | viability, T/C [36]: 4.02%

C=CC(=O)N1CCN(c2nc(=O)n(-c3c(C)ccnc3C(C)C)c3nc(-c4c(O)cccc4F)c(F)cc23)C(C)C1 (stereo not given) + CC(Nc1ncnc2nc[nH]c12)c1cc2cccc(Cl)c2c(=O)n1-c1ccccc1
pIC50 (second compound 0.0316 µM): < 5.00 | pIC50 (second compound 0.1 µM): < 5.00 | pIC50 (second compound 0.316 µM): < 5.00 | pIC50 (second compound 1 µM): < 5.00 | pIC50 (second compound 3.16 µM): < 5.00 | pIC50 (second compound 10 µM): < 5.00 | viability, T/C [1]: 100% | viability, T/C [2]: 95.4% | viability, T/C [3]: 91.8% | viability, T/C [4]: 90.9% | viability, T/C [5]: 99.7% | viability, T/C [6]: 90.4% | viability, T/C [7]: 99% | viability, T/C [8]: 90.1% | viability, T/C [9]: 96.2% | viability, T/C [10]: 93.7% | viability, T/C [11]: 100% | viability, T/C [12]: 107% | viability, T/C [13]: 95.6% | viability, T/C [14]: 87.4% | viability, T/C [15]: 90% | viability, T/C [16]: 92.2% | viability, T/C [17]: 119% | viability, T/C [18]: 88.8% | viability, T/C [19]: 96.1% | viability, T/C [20]: 110% | viability, T/C [21]: 116% | viability, T/C [22]: 101% | viability, T/C [23]: 112% | viability, T/C [24]: 95% | viability, T/C [25]: 101% | viability, T/C [26]: 91.1% | viability, T/C [27]: 106% | viability, T/C [28]: 101% | viability, T/C [29]: 107% | viability, T/C [30]: 92.3% | viability, T/C [31]: 93.9% | viability, T/C [32]: 89% | viability, T/C [33]: 93.6% | viability, T/C [34]: 76.3% | viability, T/C [35]: 87.5% | viability, T/C [36]: 72.7%

CC(Cn1ccc(-c2ccc(C#N)c(Cl)c2)n1)NC(=O)c1cc(C(C)O)[nH]n1 (stereo not given) + CC(Nc1ncnc2nc[nH]c12)c1cc2cccc(Cl)c2c(=O)n1-c1ccccc1
pIC50 (second compound 0.0316 µM): < 5.00 | pIC50 (second compound 0.1 µM): < 5.00 | pIC50 (second compound 0.316 µM): < 5.00 | pIC50 (second compound 1 µM): < 5.00 | pIC50 (second compound 3.16 µM): < 5.00 | pIC50 (second compound 10 µM): < 5.00 | viability, T/C [1]: 91% | viability, T/C [2]: 109% | viability, T/C [3]: 101% | viability, T/C [4]: 90.2% | viability, T/C [5]: 93.7% | viability, T/C [6]: 97.9% | viability, T/C [7]: 98.2% | viability, T/C [8]: 94.8% | viability, T/C [9]: 94.9% | viability, T/C [10]: 103% | viability, T/C [11]: 101% | viability, T/C [12]: 88.3% | viability, T/C [13]: 92.3% | viability, T/C [14]: 104% | viability, T/C [15]: 95.7% | viability, T/C [16]: 93.1% | viability, T/C [17]: 98.5% | viability, T/C [18]: 102% | viability, T/C [19]: 92.7% | viability, T/C [20]: 108% | viability, T/C [21]: 114% | viability, T/C [22]: 92.1% | viability, T/C [23]: 94.4% | viability, T/C [24]: 84.1% | viability, T/C [25]: 89.6% | viability, T/C [26]: 102% | viability, T/C [27]: 116% | viability, T/C [28]: 97.3% | viability, T/C [29]: 106% | viability, T/C [30]: 94.5% | viability, T/C [31]: 98% | viability, T/C [32]: 83.4% | viability, T/C [33]: 84.3% | viability, T/C [34]: 98.9% | viability, T/C [35]: 90.1% | viability, T/C [36]: 78.8%

CC1(C)CCC(Nc2ncc(C(F)(F)F)c(-c3c[nH]c4c(P(C)(C)=O)c(C#N)ccc34)n2)CN1 (stereo not given) + CC(Nc1ncnc2nc[nH]c12)c1cc2cccc(Cl)c2c(=O)n1-c1ccccc1
pIC50 (second compound 0.0316 µM): 5.38 | pIC50 (second compound 0.1 µM): 5.36 | pIC50 (second compound 0.316 µM): 5.39 | pIC50 (second compound 1 µM): 5.40 | pIC50 (second compound 3.16 µM): 5.40 | pIC50 (second compound 10 µM): 6.06 | viability, T/C [1]: 77.7% | viability, T/C [2]: 61.8% | viability, T/C [3]: 58% | viability, T/C [4]: 59.9% | viability, T/C [5]: 66.5% | viability, T/C [6]: 1.23% | viability, T/C [7]: 92.4% | viability, T/C [8]: 57.1% | viability, T/C [9]: 62% | viability, T/C [10]: 64.4% | viability, T/C [11]: 68.6% | viability, T/C [12]: 1.55% | viability, T/C [13]: 81.3% | viability, T/C [14]: 57.7% | viability, T/C [15]: 58.3% | viability, T/C [16]: 64.1% | viability, T/C [17]: 64.2% | viability, T/C [18]: 0.31% | viability, T/C [19]: 75.4% | viability, T/C [20]: 61% | viability, T/C [21]: 60.8% | viability, T/C [22]: 63% | viability, T/C [23]: 61.9% | viability, T/C [24]: 0.97% | viability, T/C [25]: 80.1% | viability, T/C [26]: 69.1% | viability, T/C [27]: 63.4% | viability, T/C [28]: 67.2% | viability, T/C [29]: 63% | viability, T/C [30]: 0.64% | viability, T/C [31]: 72% | viability, T/C [32]: 59.5% | viability, T/C [33]: 55.1% | viability, T/C [34]: 53.8% | viability, T/C [35]: 30.2% | viability, T/C [36]: 1.26%

Cn1nccc1Nc1nccc(-c2ccn(C(CO)c3ccc(Cl)c(F)c3)c(=O)c2)n1 (stereo not given) + CC(Nc1ncnc2nc[nH]c12)c1cc2cccc(Cl)c2c(=O)n1-c1ccccc1
pIC50 (second compound 0.0316 µM): 5.55 | pIC50 (second compound 0.1 µM): 5.62 | pIC50 (second compound 0.316 µM): 5.62 | pIC50 (second compound 1 µM): 5.68 | pIC50 (second compound 3.16 µM): 5.94 | pIC50 (second compound 10 µM): 6.47 | viability, T/C [1]: 82.5% | viability, T/C [2]: 86.9% | viability, T/C [3]: 112% | viability, T/C [4]: 83.7% | viability, T/C [5]: 46.3% | viability, T/C [6]: 23.6% | viability, T/C [7]: 85.3% | viability, T/C [8]: 103% | viability, T/C [9]: 107% | viability, T/C [10]: 89.1% | viability, T/C [11]: 37.2% | viability, T/C [12]: 26.2% | viability, T/C [13]: 94.7% | viability, T/C [14]: 96.1% | viability, T/C [15]: 125% | viability, T/C [16]: 83.1% | viability, T/C [17]: 40.9% | viability, T/C [18]: 23.7% | viability, T/C [19]: 94.3% | viability, T/C [20]: 101% | viability, T/C [21]: 103% | viability, T/C [22]: 75.7% | viability, T/C [23]: 36.3% | viability, T/C [24]: 24.3% | viability, T/C [25]: 106% | viability, T/C [26]: 100% | viability, T/C [27]: 105% | viability, T/C [28]: 53.9% | viability, T/C [29]: 27.6% | viability, T/C [30]: 20.8% | viability, T/C [31]: 88.7% | viability, T/C [32]: 91.4% | viability, T/C [33]: 51% | viability, T/C [34]: 27.5% | viability, T/C [35]: 24.5% | viability, T/C [36]: 15.5%
